Source: PubChem BioAssay AID248 (DTP/NCI, 2004)
Several values for one entry are separate records, joined by “and”; a condition that tells them apart may be missing. Equal values may be shown once. Toxic doses and inconclusive results are not listed.

System: L1210 leukemia ip in BDF1 mice, survival T/C
Assay: NCI In Vivo Anticancer Drug Screen. Data for tumor model L1210 Leukemia (intraperitoneal) in B6D2F1 (BDF1) mice
Details: endpoint: mean survival time, higher = longer survival
How it was run: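 Survival endpoint. Drug-treated group vs vehicle group, expressed as T divided by C. Tumor passaged by transplantation.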

[1] = dose: 100.0 mg/kg/injection, schedule: Q04DX002 (ip), vehicle: Klucel (hydroxypropylcellulose) (HPC)
[2] = dose: 200.0 mg/kg/injection, schedule: Q04DX002 (ip), vehicle: Klucel (hydroxypropylcellulose) (HPC)
[3] = dose: 100.0 mg/kg/injection, schedule: Q01DX009 (ip), vehicle: Klucel (hydroxypropylcellulose) (HPC)
[4] = dose: 200.0 mg/kg/injection, schedule: Q01DX009 (ip), vehicle: Klucel (hydroxypropylcellulose) (HPC)
[5] = dose: 400.0 mg/kg/injection, schedule: Q01DX009 (ip), vehicle: Klucel (hydroxypropylcellulose) (HPC)
[6] = dose: 100.0 mg/kg/injection, schedule: Q01DX001 (ip), vehicle: saline
[7] = dose: 200.0 mg/kg/injection, schedule: Q01DX001 (ip), vehicle: saline
[8] = dose: 100.0 mg/kg/injection, schedule: Q01DX009 (ip), vehicle: saline
[9] = dose: 200.0 mg/kg/injection, schedule: Q01DX009 (ip), vehicle: saline

With CN(C)C1=CS(=O)(=O)C1 the T/C (dose: 75.0 mg/kg/injection, schedule: Q01DX001 (ip), vehicle: saline) was 94 % of control and the T/C (dose: 150.0 mg/kg/injection, schedule: Q01DX001 (ip), vehicle: saline) was 97 % of control.
COc1ccc2c(c1)C1(C)CCCC(C)(C(N)=O)C1CC2 (stereo unspecified) was tested, and the T/C (dose: 100.0 mg/kg/injection, schedule: Q01DX001 (ip), vehicle: carboxymethylcellulose (CMC)) was 101 % of control, the T/C (dose: 200.0 mg/kg/injection, schedule: Q01DX001 (ip), vehicle: carboxymethylcellulose (CMC)) was 93 % of control and the T/C (dose: 400.0 mg/kg/injection, schedule: Q01DX001 (ip), vehicle: carboxymethylcellulose (CMC)) was 98 % of control.
With NC(=S)Nc1ccncc1 the T/C [1] was 92 % of control, the T/C [2] was 106 % of control and the T/C (dose: 400.0 mg/kg/injection, schedule: Q04DX002 (ip), vehicle: Klucel (hydroxypropylcellulose) (HPC)) was 95 % of control.
With O=C1NC(=S)S/C1=C\c1ccc(F)cc1 the T/C (dose: 12.5 mg/kg/injection, schedule: Q04DX003 (ip), vehicle: saline with Tween-80) was 117 % of control, the T/C (dose: 25.0 mg/kg/injection, schedule: Q04DX003 (ip), vehicle: saline with Tween-80) was 98 % of control and the T/C (dose: 50.0 mg/kg/injection, schedule: Q04DX003 (ip), vehicle: saline with Tween-80) was 103 % of control.
For NC(=O)N(CCCO)/N=C\c1ccc([N+](=O)[O-])o1, the T/C [1] was 100 % of control and the T/C [2] was 96 % of control.
With CC12CC[C]([Hg][I])(CC1)C2(C)C the T/C (dose: 6.25 mg/kg/injection, schedule: Q01DX009 (ip), vehicle: saline with Tween-80) was 101 % of control and 103 % of control, the T/C (dose: 12.5 mg/kg/injection, schedule: Q01DX009 (ip), vehicle: saline with Tween-80) was 95 % of control and 110 % of control and the T/C (dose: 25.0 mg/kg/injection, schedule: Q01DX009 (ip), vehicle: saline with Tween-80) was 98 % of control and 211 % of control. The T/C (dose: 50.0 mg/kg/injection, schedule: Q01DX009 (ip), vehicle: saline with Tween-80) was 91 % of control.
For C[C@@H]1CCC[C@@H](NC(=O)N(CCCl)N=O)C1, the T/C (dose: 6.7 mg/kg/injection, schedule: Q01DX001 (ip), vehicle: saline with Tween-80) was 108 % of control, the T/C (dose: 10.0 mg/kg/injection, schedule: Q01DX001 (ip), vehicle: saline with Tween-80) was 113 % of control and the T/C (dose: 15.0 mg/kg/injection, schedule: Q01DX001 (ip), vehicle: saline with Tween-80) was 124 % of control. For the same compound, the T/C (dose: 18.7 mg/kg/injection, schedule: Q01DX009 (ip), vehicle: Klucel (hydroxypropylcellulose) (HPC)) was 188 % of control, the T/C (dose: 34.0 mg/kg/injection, schedule: Q01DX001 (ip), vehicle: saline with Tween-80) was 166 % of control and the T/C (dose: 37.5 mg/kg/injection, schedule: Q01DX009 (ip), vehicle: Klucel (hydroxypropylcellulose) (HPC)) was 328 % of control. The T/C (dose: 50.0 mg/kg/injection, schedule: Q01DX001 (ip), vehicle: saline with Tween-80) was 293 % of control, the T/C (dose: 75.0 mg/kg/injection, schedule: Q01DX001 (ip), vehicle: saline with Tween-80) was 484 % of control and the T/C (dose: 75.0 mg/kg/injection, schedule: Q01DX009 (ip), vehicle: Klucel (hydroxypropylcellulose) (HPC)) was 198 % of control. For the same compound, the T/C (dose: 112.0 mg/kg/injection, schedule: Q01DX001 (ip), vehicle: saline with Tween-80) was 444 % of control, the T/C (dose: 150.0 mg/kg/injection, schedule: Q01DX009 (ip), vehicle: Klucel (hydroxypropylcellulose) (HPC)) was 106 % of control and the T/C (dose: 168.0 mg/kg/injection, schedule: Q01DX001 (ip), vehicle: saline with Tween-80) was 434 % of control.
With O=C(O)Cc1ccc(C2CCCCC2)cc1 the T/C (dose: 37.5 mg/kg/injection, schedule: Q01DX Z (ip), vehicle: carboxymethylcellulose (CMC)) was 98 % of control, the T/C (dose: 75.0 mg/kg/injection, schedule: Q01DX Z (ip), vehicle: carboxymethylcellulose (CMC)) was 95 % of control and the T/C (dose: 150.0 mg/kg/injection, schedule: Q01DX Z (ip), vehicle: carboxymethylcellulose (CMC)) was 102 % of control. For the same compound, the T/C (dose: 300.0 mg/kg/injection, schedule: Q01DX Z (ip), vehicle: carboxymethylcellulose (CMC)) was 102 % of control.
With CN1CCC(OC(=O)C(C)(O)C#Cc2ccccc2)CC1 (stereo unspecified) the T/C (dose: 50.0 mg/kg/injection, schedule: Q01DX001 (ip), vehicle: Klucel (hydroxypropylcellulose) (HPC)) was 102 % of control, the T/C (dose: 100.0 mg/kg/injection, schedule: Q01DX001 (ip), vehicle: Klucel (hydroxypropylcellulose) (HPC)) was 97 % of control and the T/C (dose: 200.0 mg/kg/injection, schedule: Q01DX001 (ip), vehicle: Klucel (hydroxypropylcellulose) (HPC)) was 100 % of control.
In the case of CCOP(=O)(OCC)O/N=C(/c1ccccc1)C(C)C, the T/C (dose: 5.0 mg/kg/injection, schedule: Q01DX001 (ip), vehicle: saline) is reported as 98 % of control, the T/C (dose: 10.0 mg/kg/injection, schedule: Q01DX001 (ip), vehicle: saline) is reported as 98 % of control and the T/C (dose: 20.0 mg/kg/injection, schedule: Q01DX001 (ip), vehicle: saline) is reported as 93 % of control. For the same compound, the T/C (dose: 40.0 mg/kg/injection, schedule: Q01DX001 (ip), vehicle: saline) was 100 % of control.
For Cc1ccc(NC(=O)Oc2ccc(Cl)cc2Cl)cc1NC(=O)Oc1ccc(Cl)cc1Cl, the T/C [3] was 89 % of control, the T/C [4] was 94 % of control and the T/C [5] was 89 % of control.
For CC1=CC(=O)OC2(C1)CC1CCC2CN1C (stereo unspecified), the T/C (dose: 50.0 mg/kg/injection, schedule: Q01DX001 (ip), vehicle: saline) was 95 % of control and the T/C [6] was 101 % of control.
In the case of C#CC(C)(O)CC(C)C (stereo unspecified), the T/C [6] is reported as 100 % of control and the T/C [7] is reported as 100 % of control.
With O=c1[nH]nnc2nn(C3OC(CO)C(O)C3O)cc12 (stereo unspecified) the T/C (dose: 100.0 mg/kg/injection, schedule: Q01DX005 (ip), vehicle: saline) was 103 % of control and the T/C (dose: 200.0 mg/kg/injection, schedule: Q01DX005 (ip), vehicle: saline) was 109 % of control.
For O=c1[nH]c2ccc(Cl)cc2c(=O)o1, the T/C [6] was 92 % of control, the T/C [8] was 100 % of control and the T/C [7] was 95 % of control. The T/C [9] was 98 % of control, the T/C (dose: 400.0 mg/kg/injection, schedule: Q01DX001 (ip), vehicle: saline) was 101 % of control and the T/C (dose: 400.0 mg/kg/injection, schedule: Q01DX009 (ip), vehicle: saline) was 90 % of control.
O=S(=O)(OCC1CO1)c1ccc(N=Nc2ccccc2)cc1 (stereo unspecified) was tested, and the T/C (dose: 100.0 mg/kg/injection, schedule: Q01DX008 (ip), vehicle: Klucel (hydroxypropylcellulose) (HPC)) was 98 % of control, the T/C (dose: 200.0 mg/kg/injection, schedule: Q01DX008 (ip), vehicle: Klucel (hydroxypropylcellulose) (HPC)) was 90 % of control and the T/C (dose: 400.0 mg/kg/injection, schedule: Q01DX008 (ip), vehicle: Klucel (hydroxypropylcellulose) (HPC)) was 96 % of control.
For C(CSC1=NCCN1)CSC1=NCCN1, the T/C (dose: 6.25 mg/kg/injection, schedule: Q01DX009 (ip), vehicle: saline) was 105 % of control, the T/C (dose: 12.5 mg/kg/injection, schedule: Q01DX009 (ip), vehicle: saline) was 111 % of control and the T/C (dose: 25.0 mg/kg/injection, schedule: Q01DX009 (ip), vehicle: saline) was 107 % of control. For the same compound, the T/C (dose: 50.0 mg/kg/injection, schedule: Q01DX009 (ip), vehicle: saline) was 117 % of control, the T/C [8] was 115 % of control and the T/C (dose: 100.0 mg/kg/injection, schedule: Q04DX003 (ip), vehicle: saline) was 100 % of control. The T/C [9] was 115 % of control and the T/C (dose: 200.0 mg/kg/injection, schedule: Q04DX003 (ip), vehicle: saline) was 108 % of control.
In the case of CNC(=O)c1cc(NC(=O)Nc2cccc(C3=NCCN3)c2)cc(NC(=O)Nc2cccc(C3=NCCN3)c2)c1, the T/C (dose: 15.0 mg/kg/injection, schedule: Q01DX Z (ip), vehicle: saline) is reported as 114 % of control, the T/C (dose: 30.0 mg/kg/injection, schedule: Q01DX Z (oral), vehicle: saline) is reported as 103 % of control and the T/C (dose: 60.0 mg/kg/injection, schedule: Q01DX Z (ip), vehicle: saline) is reported as 120 % of control. The T/C (dose: 60.0 mg/kg/injection, schedule: Q01DX Z (oral), vehicle: saline) was 119 % of control, the T/C (dose: 120.0 mg/kg/injection, schedule: Q01DX Z (oral), vehicle: saline) was 101 % of control and the T/C (dose: 240.0 mg/kg/injection, schedule: Q01DX Z (oral), vehicle: saline) was 95 % of control.
With O=C(O)c1ccccc1N=CC(=O)c1c2ccccc2cc2ccccc12 the T/C (dose: 12.5 mg/kg/injection, schedule: Q04DX002 (ip), vehicle: Klucel (hydroxypropylcellulose) (HPC)) was 105 % of control, the T/C (dose: 25.0 mg/kg/injection, schedule: Q04DX002 (ip), vehicle: Klucel (hydroxypropylcellulose) (HPC)) was 105 % of control and the T/C (dose: 50.0 mg/kg/injection, schedule: Q04DX002 (ip), vehicle: Klucel (hydroxypropylcellulose) (HPC)) was 102 % of control.
